# Experimental data reported in doi:10.1101/2024.01.05.573888v1 (biorxiv, 2024).
# Where two headings read alike, the source gives them in different places.
# Assays:
# Assay in all cases: ITC
# Format in all cases: binding
# PaKPR2 [1] = molecular target: T1, PaKPR2 (Pseudomonas aeruginosa, UniProt A0A0H2Z9K5)
# T1 sequence (A0A0H2Z9K5 1-315): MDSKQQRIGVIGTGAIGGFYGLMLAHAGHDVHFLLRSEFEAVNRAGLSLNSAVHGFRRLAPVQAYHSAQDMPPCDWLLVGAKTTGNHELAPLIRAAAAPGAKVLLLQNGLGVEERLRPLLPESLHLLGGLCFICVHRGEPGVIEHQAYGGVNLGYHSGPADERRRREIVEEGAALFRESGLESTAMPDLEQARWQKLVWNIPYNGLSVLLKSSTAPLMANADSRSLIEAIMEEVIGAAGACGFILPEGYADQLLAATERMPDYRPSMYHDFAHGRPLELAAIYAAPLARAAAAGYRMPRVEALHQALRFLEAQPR
# PaKPR2 [2] = molecular target: T1, PaKPR2; remark: listed apart in the source
# PaKPR2 [3] = molecular target: T1, PaKPR2; remark: listed apart in the source
Kd (PaKPR2 [1]) [µM],Compound,further results
0.392,O=C(O)C(=O)c1ccco1 [2-Furyl glyoxylate],
,NC(=O)C1=CN([C@@H]2O[C@H](COP(=O)(O)OP(=O)(O)OC[C@H]3O[C@@H](n4cnc5c(N)ncnc54)[C@H](OP(=O)(O)O)[C@@H]3O)[C@@H](O)[C@H]2O)C=CC1 [NADPH],Kd (PaKPR2 [2]): 7.68 µM
9.09,O=C(O)C(=O)CCc1ccccc1 [2-oxo-4-phenylbutanoic acid],
,CC[C@H](C)C(=O)C(=O)O [3methyl 2 ketopentanoate],Kd (PaKPR2 [2]): 11.2 µM
3.53,O=C(O)C(=O)c1ccccc1 [Phenyl glyoxylate],
1.34,O=C(O)C(=O)c1cccs1,
,CC(C)CC(=O)C(=O)O [2-ketoisocaproate],Kd (PaKPR2 [3]): 3.05 µM
98,NC(=O)C1=CN([C@@H]2O[C@H](COP(=O)(O)OP(=O)(O)OC[C@H]3O[C@@H](n4cnc5c(N)ncnc54)[C@H](O)[C@@H]3O)[C@@H](O)[C@H]2O)C=CC1 [NADH],
